# Test results from US20220249535A1, “COMPOSITIONS COMPRISING NICOTINAMIDE ADENINE DINUCLEOTIDE-RELATED COMPOUNDS AND USE THEREOF” (Rejuvenation Therapeutics, priority 2019, published 2022).
# Tests used:
# [1] = tested on: NAD+ levels in the blood; assay: Blood NAD+ level in subjects during daily oral dosing (Example 1); type: in vivo, human
# [2] = murine plasma or fetal-bovine-serum containing culture medium; cited from earlier work
# [3] = after NMN supplementation; through the liver and bloodstream intact into muscle; cited from earlier work
# [4] = compared with NAM; cited from earlier work
Molecule,NAD+ level in response to intake ([1]; 300 mg daily for 14 days),NAD+ level in response to intake ([1]; 1000 mg daily for 7 days),further results
"O=C(O)c1cccnc1 [NA, nicotinic acid]",increasing NAD+ levels,–,–
"NC(=O)c1ccc[n+]([C@@H]2O[C@H](CO)[C@@H](O)[C@H]2O)c1 [NR, nicotinamide riboside]",increasing NAD+ level,increasing NAD+ levels,Stability [2]: can quickly degrade into NAM
"NC(=O)c1ccc[n+]([C@@H]2O[C@H](COP(=O)([O-])O)[C@@H](O)[C@H]2O)c1 [NMN, nicotinamide mononucleotide]",–,increasing NAD+ levels,Time to metabolism to NAD+ [3]: ≤ 30 min; Retention in the body [4]: retained in the body for longer than NAM
"NC(=O)c1cccnc1 [NAM, nicotinamide]",–,–,NAD+ level in response to intake ([1]; 1000 mg daily for 14 days): increasing NAD+ levels
Nicotinamide adenine dinucleotide [NAD+],–,increasing NAD+ level,"NAD+ level in response to intake ([1]; 1000 mg daily for 7 days, listed as NAD): increasing NAD+ levels"
